Patent US8841309B2, “Substituted pyrazines and their use in the treatment of disease” (Boehringer Ingelheim International GmbH, priority 2012, dated 2014)
Counter-ions that a name gives are not always drawn.

Each compound was assayed against T1, ENaC (Mus musculus, UniProt Q61180+Q9WU38+Q9WU39) (assay: Ussing chamber: short circuit current (I_sc) in mouse kidney M-1 cells, amiloride-sensitive). Details: compound applied to apical solution, 37° C.
T1 construct: Mouse kidney M-1 cells were cultivated in DMEM containing 5% FCS and 5 μM dexamethasone; endogenous in cells; host or cells: mouse kidney M-1 cells
T1 sequence (Q61180 1-699): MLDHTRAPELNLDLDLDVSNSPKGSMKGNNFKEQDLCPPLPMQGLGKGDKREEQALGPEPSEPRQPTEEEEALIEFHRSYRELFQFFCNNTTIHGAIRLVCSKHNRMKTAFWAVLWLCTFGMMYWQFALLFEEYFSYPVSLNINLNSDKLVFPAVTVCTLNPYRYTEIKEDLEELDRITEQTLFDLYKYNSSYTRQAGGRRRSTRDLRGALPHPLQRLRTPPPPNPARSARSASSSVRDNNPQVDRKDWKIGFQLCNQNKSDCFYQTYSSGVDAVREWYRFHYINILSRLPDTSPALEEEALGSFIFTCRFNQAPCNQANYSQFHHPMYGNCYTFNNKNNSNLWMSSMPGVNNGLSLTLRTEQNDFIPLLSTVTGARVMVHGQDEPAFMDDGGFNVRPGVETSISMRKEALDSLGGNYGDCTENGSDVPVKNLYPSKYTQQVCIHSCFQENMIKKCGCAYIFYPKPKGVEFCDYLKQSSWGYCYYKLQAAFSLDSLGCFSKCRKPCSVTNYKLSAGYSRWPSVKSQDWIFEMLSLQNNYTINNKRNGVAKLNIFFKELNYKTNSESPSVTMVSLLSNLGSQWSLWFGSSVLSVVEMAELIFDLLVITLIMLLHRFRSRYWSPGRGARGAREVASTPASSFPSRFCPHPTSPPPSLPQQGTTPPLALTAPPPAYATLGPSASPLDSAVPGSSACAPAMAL
T1 sequence (Q9WU38 1-638): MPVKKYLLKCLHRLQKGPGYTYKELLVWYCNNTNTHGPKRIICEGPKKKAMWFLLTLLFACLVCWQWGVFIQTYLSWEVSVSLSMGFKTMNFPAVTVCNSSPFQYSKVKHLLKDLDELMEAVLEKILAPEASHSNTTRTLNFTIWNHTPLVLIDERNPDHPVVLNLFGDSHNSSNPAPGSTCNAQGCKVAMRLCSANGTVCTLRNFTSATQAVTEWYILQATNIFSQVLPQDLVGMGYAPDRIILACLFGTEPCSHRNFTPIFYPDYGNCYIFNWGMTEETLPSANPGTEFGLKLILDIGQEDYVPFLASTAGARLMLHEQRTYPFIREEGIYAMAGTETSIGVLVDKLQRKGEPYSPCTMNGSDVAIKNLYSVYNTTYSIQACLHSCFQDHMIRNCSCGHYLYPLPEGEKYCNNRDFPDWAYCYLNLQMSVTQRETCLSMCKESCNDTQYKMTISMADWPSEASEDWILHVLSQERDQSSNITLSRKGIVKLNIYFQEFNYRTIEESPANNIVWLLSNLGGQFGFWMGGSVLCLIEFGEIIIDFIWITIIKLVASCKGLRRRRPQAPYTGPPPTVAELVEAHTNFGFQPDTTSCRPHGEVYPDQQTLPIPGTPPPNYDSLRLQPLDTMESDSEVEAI
T1 sequence (Q9WU39 1-655): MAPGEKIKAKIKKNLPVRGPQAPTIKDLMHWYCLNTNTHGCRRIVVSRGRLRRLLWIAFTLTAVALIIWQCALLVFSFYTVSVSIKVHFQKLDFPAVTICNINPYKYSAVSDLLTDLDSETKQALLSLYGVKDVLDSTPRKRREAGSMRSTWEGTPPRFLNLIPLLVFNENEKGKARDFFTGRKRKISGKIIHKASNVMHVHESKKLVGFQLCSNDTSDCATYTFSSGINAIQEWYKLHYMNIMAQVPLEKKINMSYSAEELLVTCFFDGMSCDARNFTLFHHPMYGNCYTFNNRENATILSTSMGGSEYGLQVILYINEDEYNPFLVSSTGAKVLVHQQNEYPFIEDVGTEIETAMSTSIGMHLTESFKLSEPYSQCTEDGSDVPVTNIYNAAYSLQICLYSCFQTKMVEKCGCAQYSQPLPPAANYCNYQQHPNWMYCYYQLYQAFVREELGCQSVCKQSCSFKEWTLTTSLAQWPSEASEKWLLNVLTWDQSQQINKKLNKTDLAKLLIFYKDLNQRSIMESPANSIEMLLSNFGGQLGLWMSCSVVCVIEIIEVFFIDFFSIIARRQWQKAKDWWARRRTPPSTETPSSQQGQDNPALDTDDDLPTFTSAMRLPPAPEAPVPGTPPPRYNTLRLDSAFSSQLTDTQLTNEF
Type: cell-based
Protocol: Ussing Chamber: Mouse kidney M-1 cells were cultivated in DMEM containing 5% FCS and 5 μM dexamethasone for 10 to 12 days on polyester transwell filters. Filters were inserted into a teflon-coated well-plate which fit into the in-house ussing chamber system. Prior to measurement the medium of M-1 cells was replaced with Caco-2 transport buffer (Invitrogen, Germany). During measurements, the Ussing chamber temperature was kept at 37° C. Short circuit currents (I_sc) were measured in the voltage-clamp mode using an in-house built amplifier (Boehringer Ingelheim, Biberach) with the software package Lab View for data acquisition and analysis. The transepithelial electrical resistance (TEER) was determined by the application of voltage steps of ±5 mV every 5 sec. Compounds were administered at a final concentration of 3 μM or at increasing concentrations (1-3-10 μM) to the apical solution. At the end of each experiment the amiloride sensitive I_SC was measured by adding 3 μM amiloride to the apical compartment. Results are expressed as inhibition in percent of the amiloride effect or as IC50.
`COc1ccccc1C[N+]12CCC(CC1)[C@H](NC(N)=NC(=O)c1nc(Cl)c(N)nc1N)C2` [Example 22] was tested, and the IC50 was 92 nM.
For `COc1cccc(C[N+]23CCC(CC2)[C@H](NC(N)=NC(=O)c2nc(Cl)c(N)nc2N)C3)c1` [Example 16], the IC50 was 14 nM.
`CC[N+]1(CC(=O)Nc2cccc(F)c2)CCC(NC(N)=NC(=O)c2nc(Cl)c(N)nc2N)CC1` (centres unmarked) [Example 70.7] showed an IC50 of 31 nM.
`COc1cc(C[N+]23CCC(CC2)C(N/C(N)=N/C(=O)c2nc(Cl)c(N)nc2N)C3)cc(OC)c1OC` (centres unmarked) [Example 2, 3-[N′-(3,5-Diamino-6-chloro-pyrazine-2-carbonyl)-guanidino]-1-(3,4,5-trimethoxybenzyl)-1-azoniabicyclo[2.2.2]octane chloride] was tested, and the IC50 was 126 nM.
With `NC(=NC(=O)c1nc(Cl)c(N)nc1N)N[C@@H]1C[N+]2(Cc3ccc(SC(F)(F)F)cc3)CCC1CC2` [Example 48] the IC50 was 23 nM.
`CCOC(=O)N1CCC(NC(=O)C[N+]23CCC(CC2)[C@H](NC(N)=NC(=O)c2nc(Cl)c(N)nc2N)C3)CC1` [Example 64] showed an IC50 of 76 nM.
With `NC(=NC(=O)c1nc(Cl)c(N)nc1N)N[C@@H]1C[N+]2(CC3CCCCC3)CCC1CC2` [Example 53] the IC50 was 70 nM.
`NC(=NC(=O)c1nc(Cl)c(N)nc1N)N[C@@H]1C[N+]2(Cc3ccc(C(F)(F)F)cc3)CCC1CC2` [Example 18] was tested, and the IC50 was 43 nM.
With `NC(=NC(=O)c1nc(Cl)c(N)nc1N)N[C@@H]1C[N+]2(Cc3ccc(OCc4ccccc4)cc3)CCC1CC2` [Example 19] the IC50 was 32 nM.
For `NC(=NC(=O)c1nc(Cl)c(N)nc1N)N[C@@H]1C[N+]2(Cc3ccc(OC(F)(F)F)cc3)CCC1CC2` [Example 51], the IC50 was 89 nM.
Work on `N=C(NC(=O)c1nc(Cl)c(N)nc1N)N[C@@H]1C[N+]2(CC(=O)N[C@H](Cc3ccccc3)C(=O)O)CCC1CC2` [Example 73.1, (S)-1-[((R)-1-Carboxy-2-phenyl-ethylcarbamoyl)-methyl]-3-[N′-(3,5-diamino-6-chloro-pyrazine-2-carbonyl)-guanidino]-1-azonia-bicyclo[2.2.2]octane; chloride hydrochloride] yielded an IC50 of 197 nM.
Compound `NC(=NC(=O)c1nc(Cl)c(N)nc1N)N[C@@H]1C[N+]2(CC(=O)Nc3ccccc3)CCC1CC2` [Example 58] has an IC50 of 25 nM.
In the case of `CCNC(=O)C[N+]12CCC(CC1)[C@H](NC(N)=NC(=O)c1nc(Cl)c(N)nc1N)C2` [Example 24], the IC50 is reported as 56 nM.
Work on `NC(=NC(=O)c1nc(Cl)c(N)nc1N)N[C@@H]1C[N+]2(Cc3ccccc3OC(F)(F)F)CCC1CC2` [Example 54] yielded an IC50 of 69 nM.
`NC(=O)c1ccc(C[N+]23CCC(CC2)[C@H](NC(N)=NC(=O)c2nc(Cl)c(N)nc2N)C3)cc1` [Example 25] showed an IC50 of 693 nM.
With `NC(=NC(=O)c1nc(Cl)c(N)nc1N)N[C@@H]1C[N+]2(CC(=O)N3CCN(c4ncccn4)CC3)CCC1CC2` [Example 66] the IC50 was 22 nM.
`NC(=NC(=O)c1nc(Cl)c(N)nc1N)N[C@@H]1C[N+]2(Cc3nnsc3Cl)CCC1CC2` [Example 47] gave an IC50 of 226 nM.
With `N#Cc1ccc(C[N+]23CCC(CC2)[C@H](NC(N)=NC(=O)c2nc(Cl)c(N)nc2N)C3)cc1` [Example 32] the IC50 was 202 nM.
Work on `CCOC(=O)c1cccc(CCNC(=O)C[N+]23CCC(CC2)[C@H](NC(N)=NC(=O)c2nc(Cl)c(N)nc2N)C3)c1` [Example 77] yielded an IC50 of 43 nM.
In the case of `COc1cc(C[N+]23CCC(CC2)[C@H](NC(N)=NC(=O)c2nc(Cl)c(N)nc2N)C3)cc(OC)c1` [Example 28], the IC50 is reported as 80 nM.
`NC(=NC(=O)c1nc(Cl)c(N)nc1N)N[C@@H]1C[N+]2(Cc3nc4ccccc4s3)CCC1CC2` [Example 20] was tested, and the IC50 was 29 nM.
For `N#Cc1ccc(CNC(=O)C[N+]23CCC(CC2)[C@H](NC(N)=NC(=O)c2nc(Cl)c(N)nc2N)C3)cc1` [Example 63], the IC50 was 30 nM.
`NC(=NC(=O)c1nc(Cl)c(N)nc1N)N[C@@H]1C[N+]2(CC(=O)N3CCN(c4ccccn4)CC3)CCC1CC2` [Example 62] showed an IC50 of 20 nM.
With `CN(C(=O)C[N+]1(C)CCC(NC(N)=NC(=O)c2nc(Cl)c(N)nc2N)CC1)c1ccccc1` (centres unmarked) [Example 72.1] the IC50 was 137 nM.
For `CCNC(=O)C[N+]1(C)CCC[C@@H](NC(N)=NC(=O)c2nc(Cl)c(N)nc2N)C1` (some centres unmarked) [Example 70.3], the IC50 was 260 nM.
With `N/C(=N\C(=O)c1nc(Cl)c(N)nc1N)N[C@@H]1C[N+]2(Cc3ccc(C(F)(F)F)nc3)CCC1CC2` [Example 12, (S)-3-[N′-(3,5-Diamino-6-chloro-pyrazine-2-carbonyl)-guanidino]-1-(6-trifluoromethyl-pyridin-3-ylmethyl)-1-azonia-bicyclo[2.2.2]octane chloride] the IC50 was 63 nM.
For `NC(=NC(=O)c1nc(Cl)c(N)nc1N)NC1C[N+]2(CC(=O)NC3CCC(c4ccccc4)CC3)CCC1CC2` (centres unmarked) [Example 75], the IC50 was 22 nM.
`CC[N+]1(Cc2ccccc2)CCC(NC(N)=NC(=O)c2nc(Cl)c(N)nc2N)CC1` (centres unmarked) [Example 70.2] gave an IC50 of 52 nM.
With `NC(=NC(=O)c1nc(Cl)c(N)nc1N)N[C@@H]1C[N+]2(Cc3ccc(Cl)cc3)CCC1CC2` [Example 15] the IC50 was 18 nM.
In the case of `NC(=NC(=O)c1nc(Cl)c(N)nc1N)N[C@@H]1C[N+]2(Cc3ccncc3)CCC1CC2` [Example 45], the IC50 is reported as 279 nM.
With `CS(=O)(=O)c1ccc(C[N+]23CCC(CC2)[C@H](NC(N)=NC(=O)c2nc(Cl)c(N)nc2N)C3)cc1` [Example 21] the IC50 was 176 nM.
With `COC(=O)c1ccc(CCNC(=O)C[N+]23CCC(CC2)[C@H](NC(N)=NC(=O)c2nc(Cl)c(N)nc2N)C3)cc1` [Example 61] the IC50 was 2 nM.
Compound `NC(=NC(=O)c1nc(Cl)c(N)nc1N)N[C@@H]1C[N+]2(Cc3ccc(F)c(Cl)c3)CCC1CC2` [Example 26] has an IC50 of 13 nM.
With `NC(=NC(=O)c1nc(Cl)c(N)nc1N)N[C@@H]1C[N+]2(Cc3ccc(CC(=O)O)cc3)CCC1CC2` [Example 40] the IC50 was 625 nM.
Work on `NC(=NC(=O)c1nc(Cl)c(N)nc1N)N[C@@H]1C[N+]2(CC(=O)NCC3(c4ccccc4)CCOCC3)CCC1CC2` [Example 74] yielded an IC50 of 15 nM.
`CC(C)(C)c1ccc(C[N+]23CCC(CC2)[C@H](N/C(N)=N/C(=O)c2nc(Cl)c(N)nc2N)C3)cc1` [Example 8, (S)-1-(4-tert-Butyl-benzyl)-3-[N′-(3,5-diamino-6-chloro-pyrazine-2-carbonyl)-guanidino]-1-azoniabicyclo[2.2.2]octane chloride] gave an IC50 of 41 nM.
`CN(CCc1ccccc1)C(=O)C[N+]12CCC(CC1)[C@H](NC(N)=NC(=O)c1nc(Cl)c(N)nc1N)C2` [Example 65] was tested, and the IC50 was 2 nM.
Work on `COC(=O)c1ccc(C[N+]2(C)CCC(NC(N)=NC(=O)c3nc(Cl)c(N)nc3N)CC2)cc1` (centres unmarked) [Example 70.1] yielded an IC50 of 64 nM.
